Measured values taken from US20070167405A1, “Galectins -1 and -4 in tumor development” (priority 2001, published 2007).
pKd: −log10 of the molar value. Where “and” joins values, the source holds several entries; their conditions need not be identical. Equal entries are not always repeated. Entries after “also recorded” stand apart in the source; their conditions may differ. Where two headings read alike, the source gives them in different places.

Tests used:
[1] = target: T1, recombinant human galectin-4 (Homo sapiens, UniProt P56470); experiment: SPR (BIAcore) equilibrium binding to immobilized galectin-4; set-up: key to Galectin-4 binding, KD: NB: non-binder; conditions: for binding to galectin-4 (in words): SPR assay
T1 construct: cDNA encoding full-length human galectin-4 was amplified from an EST clone; made in house; host or cells: E. coli BL21 (DE3)pLysS
T1 sequence (P56470 1-323): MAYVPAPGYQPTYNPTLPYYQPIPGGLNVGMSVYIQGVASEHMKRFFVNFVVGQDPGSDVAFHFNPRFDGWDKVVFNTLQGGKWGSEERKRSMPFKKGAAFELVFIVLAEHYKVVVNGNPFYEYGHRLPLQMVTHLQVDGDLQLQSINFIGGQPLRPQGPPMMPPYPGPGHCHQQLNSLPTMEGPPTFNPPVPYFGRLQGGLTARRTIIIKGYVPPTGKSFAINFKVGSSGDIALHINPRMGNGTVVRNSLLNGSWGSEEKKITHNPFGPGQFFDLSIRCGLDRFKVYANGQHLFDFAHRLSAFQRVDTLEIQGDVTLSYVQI
Description: (§1) Galectin binding affinity measurements were performed in a surface plasmon resonance (SPR) assay using […] instrument (BIAcore, Inc, Uppsala, Sweden). PBS with 5 mM β-mercaptoethanol was used as running buffer for all experiments. Purified recombinant human galectin-1 and galectin-4 were immobilized at different surface densities on CM5 carboxymethyldextran chip (BIAcore) in the presence of 150 mM lactose, using standard amine coupling chemistry. Galectin immobilization was performed at 5 μl/min flow rate. To ensure the maximum possible immobilization of recombinant proteins, carboxylmethyldextran surface was activated with a 15 min pulse of a mixture of 0.05 M N-hydroxysuccinimide (NHS) with 0.2 M N-ethyl-N′-(dimethylaminopropyl) carbodiimide (EDC). Recombinant galectins, diluted to 30 μg/ml in 10 mM Na Acetate buffer (pH 4.8 for galectin-1 and pH 5.5 for galectin-4) were coupled to the surface during a 15-minute injection. Following galectin injection, remaining activated groups on the surface of the chip were deactivated with a 7 min pulse of 1 M ethanolamine hydrochloride, pH 8.5. Blank, unmodified CM5 surface was used as a negative control for the corrections for refractive index changes due to the presence of lactulosamines.
(§2) Binding of lactulosamines was performed at 80 μl/min flow rate, with injection times of 15 sec. […] Instead, the equilibrium binding levels were examined and determined the equilibrium binding constant using steady state affinity fitting model (BIAevaluation software version 3.1).

[2] = target: recombinant human galectin-1 (Homo sapiens, UniProt P09382); experiment: SPR (BIAcore) equilibrium binding to immobilized galectin-1; set-up: key to Galectin-1 binding, KD: NB: non-binder; conditions: for binding to galectin-1 (in words): SPR assay
Sequence of recombinant human galectin-1 (P09382 whole entry): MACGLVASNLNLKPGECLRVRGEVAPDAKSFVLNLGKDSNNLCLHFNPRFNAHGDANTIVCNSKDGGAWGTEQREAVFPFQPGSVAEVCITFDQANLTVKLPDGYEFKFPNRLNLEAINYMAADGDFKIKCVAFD
Description: as §1, §2

[3] = target: galectin-1 binding to 90K/MAC-2BP (Homo sapiens, UniProt P09382); experiment: ELISA, inhibition of galectin-1 binding to immobilized 90K; conditions: for inhibition of galectin-1 binding to 90K (in words): ELISA, FIG. 9A; for inhibition of binding of galectin-1 to 90K: at 156 μM, galectin-1 2.5 μg/ml (0.17 μM)
Sequence of galectin-1 binding to 90K/MAC-2BP (P09382 2-135 limits assumed): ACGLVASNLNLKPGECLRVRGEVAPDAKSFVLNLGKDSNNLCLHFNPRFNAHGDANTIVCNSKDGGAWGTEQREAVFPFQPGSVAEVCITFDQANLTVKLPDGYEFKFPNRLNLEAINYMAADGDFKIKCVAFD
Description: (§3) Human 90K/MAC-2BP (thereafter called 90K) was purified from transfected EBNA-293 cells (lurisci, I., et al., Clin. Cancer Res. (2000) 6:1389-1393). Laminin was obtained from Boehringer Mannheim GmbH (Germany). The ELISA for galectin binding has been previously described (Tinari, N., et al., Int. J. Cancer (2001) 91:167-172). Briefly, Nunc Maxisorb microtiter wells were coated with 0.5 μg/well of 90K or laminin. Recombinant galectin-1 (2.5 μg/ml or 0.17 μM) was diluted in PBS with 0.1% Tween-20 and added to wells coated with glycoproteins, and galectin-1 binding was detected with anti-galectin-1 rabbit antiserum. In binding-inhibition experiments, recombinant galectin-1 was diluted in PBS-0.1% Tween-20 containing indicated concentration of lactulosamines or lactose.

CD8+ CTL clone [4] = experiment: CD8+ CTL clone survival after TF peptide stimulation, with galectin-1 and inhibitors; type: cell-based; conditions: for prevention of cell death induced by galectin-1: 4 days, FIG. 10B; for restoring the ability of CTL's to proliferate: in presence of galectin-1, FIG. 10B
Text: The ability of L2hmda to restore this activity is especially significant since TDG, a known galectin inhibitor, is toxic. However, L2hmda is not toxic. […] The CD8+ CTL clone was stimulated with TF peptide for 4 days and cell survival (% of starting number) measured by enumerating viability by trypan blue exclusion.

CD8+ CTL clone [5] = experiment: Cytokine production by CD8+ CTL clone after TF peptide stimulation, with galectin-1 and inhibitor; type: cell-based
Description: Treatment in vitro of CD4+ and CD8+T cells with recombinant soluble galectin-1 inhibits their survival and ability to secrete cytokine, such as interferon-γ and IL-2. […] In FIG. 10A, cells are stimulated by TF peptide and the levels of interferon-γ produced measured in nanogram/milliliter (ng/ml). As shown, galectin-1 inhibits interferon-γ secretion in a dose-dependent manner. […] Similar data were seen when another cytokine, IL-2, was measured (not shown).

[6] = target: galectin-1 binding to laminin (Homo sapiens, UniProt P09382); experiment: ELISA, inhibition of galectin-1 binding to immobilized laminin; conditions: for inhibition of galectin-1 binding to laminin (in words): ELISA, FIG. 9B; for inhibition of binding of galectin-1 to laminin: at 156 μM, galectin-1 2.5 μg/ml (0.17 μM)
Sequence of galectin-1 binding to laminin (P09382 2-135 limits assumed): as above
Description: as §3

N202.1A tumor cells = experiment: N202.1A tumor growth in Neu mice; type: in vivo; conditions: 100 μl of 100 μM daily combined with dendritic cell therapy, 25 days, FIG. 11, listed as L2hmda
Description: Neu mice were inoculated on Day 0 with 10^6 N202.1A tumor cells. The animals were divided into four groups of four mice each. On Day 7, groups 2 and 4 were subjected to dendritic cell therapy which involved immunization with 10^6 dendritic cells pulsed with apoptotic N202.1A cells and intraperitoneal injections of recombinant IL-2 (10^4 1.U./injection) from Day 10 to […]. Groups 3 and 4 received injections of 100 μl of 100 μM L2hmda daily.

cancer cells = conditions: cited from earlier work
breast cancer cells = conditions: nude mouse model; cited from earlier work
[7] = Toxicity statement on galectin inhibitors
[8] = SPR steady state affinity fit, Table I, read-out: Galectin-4 binding, KD
[9] = SPR, full-length galectin-4 with two binding domains, read-out: KD for galectin-4
[10] = SPR steady-state analysis, read-out: KD value for galectin-1
[11] = SPR steady state affinity fit, Table I, read-out: Galectin-1 binding, KD
[12] = SPR steady state affinity fit, Table I

Molecule: OCC1OC(OC2C(O)COC(O)(CNCCCCCCNCC3(O)OCC(O)C(OC4OC(CO)C(O)C(O)C4O)C3O)C2O)C(O)C(O)C1O (stereo not drawn) [Dilactulose-hexamethylenediamine, dilactulose-hexamethylenediamine]
- binding to galectin-4 (in words) [1]: superior in binding
- pKd [1, 8]: 4.11 and 4.08 and 3.98 and 3.94
- pKd [1, 9]: ~4.10
- half-life, weighted average of the two components of dissociation rate [2]: 7 s
- binding to galectin-1 (in words) [2]: superior in binding
- binding to galectin-1 (in words) ([2]; listed as L2hmda): significantly stronger
- pKd [2, 10]: ~5.82
- half-life, fast component ([2]; corresponding to fast koff): 3 s
- half-life, slow component ([2]; corresponding to slow koff): 19 s
- koff, fast component ([2]; two-component dissociation model, fast component 40% of overall rate): 0.16 to 0.2 s⁻¹
- koff, slow component ([2]; two-component dissociation model, slow component 60% of overall rate): 0.036 s⁻¹
- inhibition of galectin-1 binding to 90K (in words) [3]: most potent inhibitor
- inhibition of binding of galectin-1 to 90K [3]: about 80%
- prevention of cell death induced by galectin-1 (CD8+ CTL clone [4]; trypan blue exclusion): prevented the majority of cell death
- restoring the ability of CTL's to proliferate (CD8+ CTL clone [4]): able to restore
- restoration of interferon secretion (CD8+ CTL clone [5]; galectin-1 7 μM, L2hmda 200 μM, FIG. 10C): restores the interferon 7 secretion to normal
- galectin-1 mediated suppression of IFN-γ production by the CTL (CD8+ CTL clone [5]; increasing concentrations (50-200 uM) of inhibitor): completely prevented
- inhibition of galectin-1 binding to laminin (in words) [6]: most potent inhibitor
- inhibition of binding of galectin-1 to laminin [6]: about 70%
- tumor volume (N202.1A tumor cells): superior to treatment with either alone; also recorded: very little tumor volume enhancement

Molecule: CC(NCC(=O)C(O)C(OC1OC(CO)C(O)C(O)C1O)C(O)CO)C(=O)O [Lactulose-D-alanine]
- pKd [1, 8]: 3.00
- pKd [2, 11]: 3.88

Molecule: CC(C)CC(NCC(=O)C(O)C(OC1OC(CO)C(O)C(O)C1O)C(O)CO)C(=O)O [Lactulose-D-leucine]
- pKd [1, 8]: 3.11 and 3.06 and 2.96
- pKd [2, 11]: 3.89 and 3.65

Molecule: O=C(O)CCCNCC(=O)C(O)C(OC1OC(CO)C(O)C(O)C1O)C(O)CO [Lactulose-L-GABA]
- pKd [1, 8]: 2.98
- pKd [2, 11]: 3.97

Molecule: CC(NCC(=O)C(O)C(OC1OC(CO)C(O)C(O)C1O)C(O)CO)C(=O)O [Lactulose-L-alanine]
- pKd [1, 8]: 2.83 and 2.76
- pKd [2, 11]: 3.82

Molecule: O=C(O)C(Cc1c[nH]cn1)NCC(=O)C(O)C(OC1OC(CO)C(O)C(O)C1O)C(O)CO [Lactulose-L-histidine]
- pKd [1, 8]: 2.64
- pKd [2, 11]: 3.72

Molecule: CCC(C)C(NCC(=O)C(O)C(OC1OC(CO)C(O)C(O)C1O)C(O)CO)C(=O)O [Lactulose-L-isoleucine]
- pKd [1, 8]: 3.26
- pKd [2, 11]: 3.89

Molecule: CC(C)CC(NCC(=O)C(O)C(OC1OC(CO)C(O)C(O)C1O)C(O)CO)C(=O)O [Lactulose-L-leucine, lactulose-L-leucine]
- pKd [1, 8]: 3.30 and 3.10 and 3.00
- pKd [1, 9]: ~3.10
- binding to galectin-1 (in words) [2]: could bind
- pKd [2, 11]: 3.95 and 3.70
- pKd [2, 10]: ~3.96
- inhibition of binding of galectin-1 to 90K [3]: about 50%
- adhesion of cancer cells to endothelium (cancer cells): blocks
- inhibition of binding of galectin-1 to laminin [6]: ~40%
- clonogenic growth and metastasis of breast cancer cells (breast cancer cells): block

Molecule: CSCCC(NCC(=O)C(O)C(OC1OC(CO)C(O)C(O)C1O)C(O)CO)C(=O)O [Lactulose-L-methionine]
- pKd [1, 8]: 2.90
- pKd [2, 11]: 3.90

Molecule: O=C(O)C(Cc1ccccc1)NCC(=O)C(O)C(OC1OC(CO)C(O)C(O)C1O)C(O)CO [Lactulose-L-phenylalanine]
- pKd [1, 8]: 2.96 and 2.90
- pKd [2, 11]: 3.70

Molecule: O=C(CN1CCCC1C(=O)O)C(O)C(OC1OC(CO)C(O)C(O)C1O)C(O)CO [Lactulose-L-proline]
- pKd [1, 8]: 3.28
- pKd [2, 11]: 4.15
- inhibition of binding of galectin-1 to 90K [3]: about 50%
- inhibition of binding of galectin-1 to laminin [6]: ~40%

Molecule: CC(O)C(NCC(=O)C(O)C(OC1OC(CO)C(O)C(O)C1O)C(O)CO)C(=O)O [Lactulose-L-threonine]
- pKd [1, 8]: 2.42
- pKd [2, 11]: 3.42

Molecule: CC(C)C(NCC(=O)C(O)C(OC1OC(CO)C(O)C(O)C1O)C(O)CO)C(=O)O [Lactulose-L-valine]
- pKd [1, 8]: 3.14
- pKd [2, 11]: 3.80

Molecule: O=C(O)CNCC(=O)C(O)C(OC1OC(CO)C(O)C(O)C1O)C(O)CO (stereo not drawn) [Lactulose-glycine]
- pKd [1, 8]: 3.10
- pKd [2, 11]: 3.99
- inhibition of binding of galectin-1 to 90K [3]: about 20%
- inhibition of binding of galectin-1 to laminin [6]: ~10%

Molecule: OC[C@H]1O[C@H](O[C@H]2[C@H](O)[C@@H](O)[C@H](O)O[C@@H]2CO)[C@H](O)[C@@H](O)[C@@H]1O [Maltose, reference compound]
- binding to galectin-4 (in words) [1]: unable to bind
- Galectin-4 binding, KD [1, 12]: NB
- binding to galectin-1 (in words) [2]: unable to bind
- Galectin-1 binding, KD [2, 12]: NB

Molecule: OC[C@H]1O[C@@](CO)(O[C@H]2O[C@H](CO)[C@@H](O)[C@H](O)[C@H]2O)[C@@H](O)[C@@H]1O [Sucrose, reference compound]
- binding to galectin-4 (in words) [1]: unable to bind
- Galectin-4 binding, KD [1, 12]: NB
- binding to galectin-1 (in words) [2]: unable to bind
- Galectin-1 binding, KD [2, 12]: NB

Molecule: OC[C@H]1O[C@@H](S[C@@H]2O[C@H](CO)[C@H](O)[C@H](O)[C@H]2O)[C@H](O)[C@@H](O)[C@H]1O [TDG, thiodigalactolate, reference compound]
- toxicity [7]: toxic
- prevention of cell death induced by galectin-1 (CD8+ CTL clone [4]; trypan blue exclusion): prevented the majority of cell death
- restoring the ability of CTL's to proliferate (CD8+ CTL clone [4]): able to restore

Molecule: OC[C@H]1O[C@@H](O[C@H]2[C@H](O)[C@@H](O)[C@H](O)O[C@@H]2CO)[C@H](O)[C@@H](O)[C@H]1O [β-lactose, reference compound]
- binding to galectin-4 (in words) [1]: able to bind
- binding to galectin-1 (in words) [2]: able to bind
- inhibition of galectin-1 binding to 90K (in words) [3]: inhibited
- inhibition of binding of galectin-1 to 90K [3]: about 20%
- inhibition of galectin-1 binding to laminin (in words) [6]: inhibited
- inhibition of binding of galectin-1 to laminin [6]: ~10%

Molecule: fructose-D-leucine
- binding to galectin-4 (in words) [1]: unable to bind
- Galectin-4 binding, KD [1, 12]: NB
- binding to galectin-1 (in words) [2]: did not
- binding to galectin-1 (in words) ([2]; listed as fructose coupled to leucine): unable to bind
- Galectin-1 binding, KD [2, 12]: NB

Molecule: galectin-1: recombinant soluble galectin-1, immunosuppressive lectin added to T cells
- death of T cells (CD8+ CTL clone [4]; over the 4 day period, trypan blue exclusion): 90%
- IFN-γ production (ELISA) (CD8+ CTL clone [5]; supernatants 48 hr after stimulation, galectin-1 0-7 uM): suppressed in a dose dependent fashion
